Experimental data: US8299265B2, “Amine derivatives having NPY Y5 receptor antagonistic activity and the uses thereof” (Shionogi & Co., Ltd., priority 2007, dated 2012)

Columns and labels:
[1] = biological target: T1, P-gp (Mus musculus, UniProt P21447); assay: Potential for drug-drug interactions through P-gp in vivo (Kp with or without cyclosporin A); settings: mice, Kp with versus without cyclosporin A (20 mg/kg)
T1 construct: from tissue; host or cells: living mice (Jcl; C57BL/6J, male, 7 weeks), brain / blood-brain barrier
Procedure: Transportability of the compounds of this invention through the blood-brain barrier (blood-brain partition coefficient; Kp) in mice (Jcl; C57BL/6J mice, ♂, 7 weeks) was defined from the difference in concentration of the compounds between in plasma and in brain after intravenous administration of the compounds (0.5 mg/2 mL/kg). The brain Kp value of Compound (I-72) (Kp Cont.) was 1.29 showing high transportability through the blood-brain barrier.
To examine the potential for drug-drug interactions through P-gp in vivo, the Kp values of compounds of this invention with (KpCSA) or without (KpCont.) cyclosporin A (20 mg/kg), a P-gp inhibitor, were calculated. The KpCSA value of Compound (I-72) was 1.14, and the calculated KpCSA KpCont. ratio was 0.9.
On the other hand the potential for drug-drug interactions through P-pg of amide compound B which has similar structure of Compound (I-72) was also examined in mice. The KpCont. and KpCSA were 0.04 and 0.84, respectively.

[2] = biological target: T2, mouse NPY Y5 receptor (Mus musculus, UniProt O70342); assay: Affinity for mouse NPY Y5 receptor ([125I] peptide YY binding, CHO cell membranes); settings: membranes of CHO cells expressing mouse NPY Y5 receptor
T2 construct: expressed in transfected cells; membranes used
T2 sequence (O70342 1-466): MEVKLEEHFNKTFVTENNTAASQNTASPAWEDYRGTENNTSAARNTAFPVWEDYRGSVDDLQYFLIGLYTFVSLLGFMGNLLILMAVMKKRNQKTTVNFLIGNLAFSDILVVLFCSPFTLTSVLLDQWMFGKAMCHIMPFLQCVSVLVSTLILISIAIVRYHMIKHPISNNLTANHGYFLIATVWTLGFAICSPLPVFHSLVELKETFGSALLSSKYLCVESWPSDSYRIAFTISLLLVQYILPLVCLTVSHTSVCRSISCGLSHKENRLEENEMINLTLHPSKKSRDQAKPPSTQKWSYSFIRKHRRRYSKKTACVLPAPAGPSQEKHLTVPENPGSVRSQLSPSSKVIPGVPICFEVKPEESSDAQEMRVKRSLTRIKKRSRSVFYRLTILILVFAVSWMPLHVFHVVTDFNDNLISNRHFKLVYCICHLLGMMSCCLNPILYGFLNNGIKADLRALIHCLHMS
Excerpt: cDNA sequence encoding a mouse NPY Y5 receptor (Biochim. Biophys. Acta 1328, 83-89, 1997) was cloned in a vector (pME18S, Takebe et al. Mol. Cell. Biol. 8, 466-472). The obtained expression vector was transfected into CHO cells as a host by using Lipofect AMINE reagent (Trademark, Gico BRL Co., Ltd.) according to the instruction manual. The cells that stably express NPY Y5 receptor were obtained.
The membranes prepared from the CHO cells expressing NPY Y5 receptor, the compound of this invention and 30,000 cpm [^125I] peptide YY (60 pM of final concentration: Amersham) were incubated in the assay buffer (20 mM HEPES-Hanks buffer containing 0.1% bovine serum albumin, pH 7.4) at 25° C. for 2 hours, and then the membrane was filtered from the mixture through a glassfilter (GF/C) presoaked with 1% polyethyleneimine. After washing with 50 mM Tris-HCl buffer (pH 7.4), radioactivity retained on the filters was quantified with a gamma counter.
Nonspecific binding was defined as the amount of radioactivity bound to the membranes after incubation in the presence of 200 nM of peptide YY. The 50% inhibitory concentration of the test compound against the specific peptide YY binding (IC50 value) was calculated (Inui, A. et al. Endocrinology 131, 2090-2096 (1992)).

[3] = test system: male C57BL/6J mice; assay: Inhibition of Y5 agonist-induced food intake in mice; format: in vivo; settings: Mus musculus, 4 hours after dosing, read-out: Inhibition ratio of Y5 agonist-induced food intake; for inhibition in vivo at 6 mg/kg: unmarked cells
Procedure: Under diethylether anesthesia the skull of male C57BL/6J mice (12-14 week old, 25-30 g) was exposed by making an incision about 1-cm long from external occipital crest to nasal dorsum, and then drilled in the 1-mm lateral position to the left following 1-mm posterior from bregma. After recovery from anesthesia mice were dosed with either 0.5% hydroxypropylmethyl cellulose solution (vehicle, Shin-Etsu Chemical Co., Ltd) or the compounds of this invention suspended in the 0.5% hydroxypropylmethyl cellulose solution. At one hour after the treatment, each animal received saline or a NPY Y5 receptor specific agonist, [cPP^1-7, NPY^19-23, Ala^31, Aib^32, Gln^34]-hPancreatic Polypeptide (0.1 nmol/1.5 μL saline/mouse) through the skull opening using a canula. Residual food was measured at 2 and 4 hours after the treatment.

[4] = test system: high-fat diet-induced obese mice; assay: Suppression of body weight gain in high-fat diet-induced obese mice; format: in vivo; settings: 6 mg/kg b.i.d. for 3 weeks, compared to vehicle
Procedure: Prior to administration of the compounds of this invention, male C57BL/6J mice were given a high-fat diet to induce obese. The high-fat diet-induced obese mice (13-14 week old, body weight 28-33 g) were dosed with 0.5% hydroxypropylmethyl cellulose solution (vehicle, Shin-Etsu Chemical Co., Ltd) or the compounds of this invention suspended in the 0.5% hydroxypropylmethyl cellulose solution twice a day (b.i.d.) for 3 weeks with the same diet. The changes in body weight were monitored daily.

T1 sequence (P21447 whole entry): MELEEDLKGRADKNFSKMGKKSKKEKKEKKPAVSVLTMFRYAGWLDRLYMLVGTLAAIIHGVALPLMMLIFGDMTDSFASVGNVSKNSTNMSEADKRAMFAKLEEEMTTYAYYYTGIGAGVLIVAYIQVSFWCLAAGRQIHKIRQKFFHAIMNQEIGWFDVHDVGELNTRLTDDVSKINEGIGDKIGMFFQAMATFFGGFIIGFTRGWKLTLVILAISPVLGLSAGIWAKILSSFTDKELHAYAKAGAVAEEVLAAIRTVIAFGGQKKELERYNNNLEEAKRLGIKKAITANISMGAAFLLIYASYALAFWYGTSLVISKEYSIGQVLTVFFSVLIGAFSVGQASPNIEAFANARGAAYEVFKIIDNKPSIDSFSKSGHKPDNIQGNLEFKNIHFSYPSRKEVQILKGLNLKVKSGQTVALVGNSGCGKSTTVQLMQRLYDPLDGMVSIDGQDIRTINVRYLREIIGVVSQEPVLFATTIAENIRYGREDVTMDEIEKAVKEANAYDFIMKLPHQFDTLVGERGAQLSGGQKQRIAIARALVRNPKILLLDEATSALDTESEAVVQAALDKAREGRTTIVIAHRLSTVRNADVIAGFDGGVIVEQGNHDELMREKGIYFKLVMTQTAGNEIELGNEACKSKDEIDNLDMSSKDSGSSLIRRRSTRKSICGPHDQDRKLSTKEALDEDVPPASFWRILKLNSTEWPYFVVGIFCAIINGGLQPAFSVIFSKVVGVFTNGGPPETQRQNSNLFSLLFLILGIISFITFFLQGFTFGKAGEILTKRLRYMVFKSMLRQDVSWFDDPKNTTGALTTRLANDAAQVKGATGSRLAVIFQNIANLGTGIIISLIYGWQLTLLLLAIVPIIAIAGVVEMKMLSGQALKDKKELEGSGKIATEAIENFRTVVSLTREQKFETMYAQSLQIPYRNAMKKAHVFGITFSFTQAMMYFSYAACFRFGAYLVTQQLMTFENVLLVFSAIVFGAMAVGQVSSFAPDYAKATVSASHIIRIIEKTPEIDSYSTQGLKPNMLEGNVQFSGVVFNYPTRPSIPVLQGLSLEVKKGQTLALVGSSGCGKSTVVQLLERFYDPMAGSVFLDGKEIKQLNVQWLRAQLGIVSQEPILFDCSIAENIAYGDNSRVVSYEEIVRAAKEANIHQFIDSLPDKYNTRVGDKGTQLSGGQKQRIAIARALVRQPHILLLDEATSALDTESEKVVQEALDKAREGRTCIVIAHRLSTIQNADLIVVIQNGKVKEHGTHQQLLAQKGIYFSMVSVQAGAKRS

Structure (SMILES) | melting point [°C] | inhibition in vivo at 6 mg/kg [3] [%] | also measured
C[C@@H]1CN(c2ccc(NC[C@H]3CC[C@H](NS(=O)(=O)C(C)(C)C)CC3)cc2)C[C@H](C)O1 [Compound I-72] | – | – | KpCSA/KpCont. ratio [1]: 0.9
CCS(=O)(=O)N[C@H]1CC[C@H](CNc2cc(-c3ccccc3)on2)CC1 [Ii-44] | – | – | IC50 [2]: 3.4 nM
Cn1c(=O)oc2cc(NC[C@H]3CC[C@H](NS(=O)(=O)C(C)(C)C)CC3)cc(F)c21 [Ii-45] | – | 76.2 | Body weight gain [4]: suppresses Body Weight Gain
CC(C)S(=O)(=O)N[C@H]1CC[C@H](CNc2cc(F)cc(N3CCOCC3)c2)CC1 [Ii-55] | – | 64.3 | –
CCS(=O)(=O)NC[C@H]1CC[C@H](Nc2ccc(-c3ccccc3)cn2)CC1 [Ij-4] | – | 88.2 | –
CC(C)(C)S(=O)(=O)NC[C@H]1CC[C@H](Nc2ccn(-c3ccccc3F)n2)CC1 [Ij-110] | – | 90.3 | –
CCS(=O)(=O)NC[C@H]1CC[C@H](Nc2ccn(-c3ccccc3F)n2)CC1 [Ij-112] | – | – | Body weight gain [4]: suppresses Body Weight Gain
CC(C)S(=O)(=O)NC[C@H]1CC[C@H](Nc2nc3cccc(F)c3s2)CC1 [Ij-153] | – | 73 | –
CC(C)S(=O)(=O)NC[C@H]1CC[C@H](Nc2nc3cc(F)ccc3o2)CC1 [Ij-155] | – | – | inhibition in vivo at 1.5 mg/kg [3]: 56.1%
CC(C)(C)S(=O)(=O)NC[C@H]1CC[C@H](Nc2nc3ccc(F)cc3o2)CC1 [Ij-159] | – | 83.2 | –
CCC(C)S(=O)(=O)NC[C@H]1CC[C@H](Nc2nc3cc(F)ccc3o2)CC1 (stereo partly drawn) [Ij-160] | – | – | inhibition in vivo at 1.5 mg/kg [3]: 36.6%
C[C@@H]1CN(c2ccc(NC(=O)[C@H]3CC[C@H](NS(=O)(=O)C(C)(C)C)CC3)cc2)C[C@H](C)O1 [amide compound B, reference compound] | – | – | KpCSA/KpCont. ratio [1]: 20.5

Continued, in another order:

melting point [°C] | Structure (SMILES) | inhibition in vivo at 6 mg/kg [3] [%] | also measured
170 to 171 | CCS(=O)(=O)NC[C@H]1CC[C@H](Nc2nc3ccccc3o2)CC1 [Ij-150] | 25.3 | –
165 to 166 | CC(C)S(=O)(=O)NC[C@H]1CC[C@H](Nc2nc3cc(F)ccc3s2)CC1 [Ij-151] | – | inhibition in vivo at 1.5 mg/kg [3]: 78.4%
151 to 152 | CC(C)S(=O)(=O)NC[C@H]1CC[C@H](Nc2nc3ccc(F)cc3s2)CC1 [Ij-152] | – | inhibition in vivo at 1.5 mg/kg [3]: 62.6%
166 to 167 | CC(C)S(=O)(=O)NC[C@H]1CC[C@H](Nc2nc3cc(Cl)ccc3s2)CC1 [Ij-154] | 81.3 | –
170 to 171 | CC(C)S(=O)(=O)NC[C@H]1CC[C@H](Nc2nc3ccc(F)cc3o2)CC1 [Ij-156] | – | inhibition in vivo at 12.5 mg/kg ([3]; **Dose: 12.5 mg/kg): 90.4%
220 to 221 | CC(C)(C)S(=O)(=O)NC[C@H]1CC[C@H](Nc2nc3cc(F)ccc3o2)CC1 [Ij-158] | 70.5 | –
173 to 174 | CCC(C)S(=O)(=O)NC[C@H]1CC[C@H](Nc2nc3ccc(F)cc3o2)CC1 (stereo partly drawn) [Ij-161] | – | inhibition in vivo at 1.5 mg/kg [3]: 15.8%
